Legend:
Format in all cases: in vivo, mouse
heart sections [1] = test: Masson's Trichrome staining of heart sections (fibrosis)
Description: FIGS. 6a-e: a. Schematic of chronic doxorubicin treatment protocol. All mice received a baseline MRI scan first. Tamoxifen was then administered by gavage at a dose of 25 mg/kg, once a day for 5 consecutive days. […] After the last MRI scan, mice were sacrificed and the hearts were removed and examined for histological changes and Top2b expression. b. RT-qPCR of genes involved in mitochondrial biogenesis. Mice were treated with doxorubicin (5 mg/kg) once a week for 5 weeks. Cardiomyocytes were isolated from the heart 72 hr after the last dose. Total RNA was extracted for RTqPCR analysis of genes important for the function and structure of the mitochondria. For each mRNA shown relative expression is graphed for Top2b^+/+ Control, Top2b^+/+ Dox, Top2b^Δ/Δ Control, and Top2b^Δ/Δ Dox (from left to right). One way ANOVA was used to determine statistical significance (p<0.05). Error bars indicated STDEV. The asterisks indicated a significant difference (p<0.05). c. ROS production and quantitation. Representative images of heart sections stained with Dihydroethidium (DHE), which, after oxidation, intercalated into DNA and stained the nuclei red. Mice were treated with doxorubicin (5 mg/kg) once a week for 5 weeks. […] The numbers of DHE-positive and total nuclei were counted as described and the percentage of DHE-positive nuclei was determined. […]

heart sections [2] = test: Transmission electron microscopy of heart sections; details: for Ultra-structural changes of mitochondria (electron microscopy): doxorubicin 25 mg/kg for 72 h
Description: To examine doxorubicin-induced ultra-structural damages, wildtype and mice with Top2 deletion in the cardiomyocytes were treated with doxorubicin (25 mg/kg for 72 h or 5 mg/kg once a week for 5 weeks) or drug vehicle. Heart was quickly removed. After rinse with PBS and blot dried, 10-20 pieces of tissue samples (1×2×2 mm) were taken from the myocardium of the left ventricle. Tissue samples were immediately fixed in 3% phosphate glutaraldehyde. Before sectioning, tissue samples were washed in […] sodium phosphate buffer (pH 7.3), post fixed in 1% osmium tetroxide for 1 h and dehydrated through a series of graded alcohol. Then tissue samples were infiltrated with acetone and phlybed 812 plastic resin and embedded in plastic block molds with 100% polybed 812. One micron sections (thick sections) were cut on ultra microtome and placed on glass slides and stained with toluidine blue. Ultra thin sections (80 nm) were cut from sample blocks using a RMC MTXL Ultra Microtome and mounted on 100 mesh copper grids. Grids were stained with 2% uranyl acetate and Reynold's lead stain. 9 sections were analyzed from each animal heart. Grids were examined with a JEOL 1230 electron microscope and images were capture with an AMTV 600 imaging system.

cardiomyocytes = test: Oxygen consumption rate (Seahorse XF96) of isolated cardiomyocytes; details: wild type cardiomyocytes, 72 hrs after doxorubicin 25 mg/kg; not in Top2b deleted
Description: FIGS. 5a-c: a. Determination of oxygen consumption rate (OCR). Cardiomyocytes were isolated from hearts of Top2b^+/+ and Top2b^Δ/Δ mice 72 hrs after treatment with doxorubicin (25 mg/kg; right bars) or drug vehicle (left bars). The cardiomyocytes were seeded in 96-well plates for oxygen consumption measurement using a Seahorse XF96 instrument. OCR was measured continuously for 90 min in […] from each mouse. The basic OCR was hardly changed during the 90 min measurement, therefore, the OCR at 90 min was compared among the groups. After measurement, the number of cells was counted. Results were normalized as pmoles of oxygen consumed per min per 1,000 cells. Bars represent means±SEM. Asterisk indicates statistically significant difference (p<0.05). b. ROS production in the hearts. Representative images of heart sections stained with Dihydroethidium (DHE), which, after being oxidized, intercalates into DNA and stains the nuclei red. Hearts were harvested 16 hrs after doxorubicin treatment (25 mg/kg) and snap-frozen as described. Heart sections were stained with DHE immediately. […] Quantification of ROS production in FIG. 5b. The numbers of DHE-positive and total nuclei were counted as described and the percentage of DHE-positive nuclei was determined. Quantitative data (mean±SEM) were shown as a bar graph below the images. […]

## COc1cccc2c1C(=O)c1c(O)c3c(c(O)c1C2=O)C[C@@](O)(C(=O)CO)C[C@@H]3O[C@H]1C[C@H](N)[C@H](O)[C@H](C)O1 [doxorubicin]
Heart sections [1]; Top2b+/+ mice, doxorubicin 5 mg/kg once a week for 5 weeks, hearts 72 h after last dose
  Fibrosis in the hearts (Masson's Trichrome): patchy fibrosis
Heart sections [1]; Top2bΔ/Δ hearts, chronic doxorubicin 5 mg/kg once a week for 5 weeks
  Fibrosis and other pathological changes after chronic treatment, relative to Top2b+/+ hearts: much less so
Heart sections [2]; Top2b+/+ hearts, chronic doxorubicin 5 mg/kg once a week for 5 weeks
  Ultrastructural changes in mitochondria (EM): ultrastructural changes in mitochondria
Heart sections [2]; Top2b+/+ mouse heart
  Ultra-structural changes of mitochondria (electron microscopy): marked mitochondria damage and vacuolization
Heart sections [2]; Top2bΔ/Δ heart
  Ultra-structural changes of mitochondria (electron microscopy): minimal ultra-structural changes
cardiomyocytes
  Oxygen consumption rate (OCR): significantly reduced

From patent US9169509B2, “Topoisomerase 2b as a predictor of susceptibility to anthracycline-induced cardiotoxicity” (Board of Regents, The University of Texas System, priority 2013, dated 2015)
